# Source: ChEMBL document CHEMBL3886193, “Bicyclic sulfonamide compounds as sodium channel inhibitors” (2015)
# Where “and” joins values, the source holds several entries; their conditions need not be identical. Identical values can stand only once.
# Target: Sodium channel protein type 9 subunit alpha (Homo sapiens, UniProt Q15858)
# Test: Compound effects were measured on a partially inactivated state of the sodium channel. Cells were clamped to a holding potential yielding 20 to 50% inactivation. To elicit sodium current, channels were activated by pulsing to -10 mV for 20 msec. This voltage protocol was repeated at a rate of 0.1 Hz throughout the experiment.
# Type: cell-based, Sf9
# Sequence of Sodium channel protein type 9 subunit alpha (Q15858 whole entry): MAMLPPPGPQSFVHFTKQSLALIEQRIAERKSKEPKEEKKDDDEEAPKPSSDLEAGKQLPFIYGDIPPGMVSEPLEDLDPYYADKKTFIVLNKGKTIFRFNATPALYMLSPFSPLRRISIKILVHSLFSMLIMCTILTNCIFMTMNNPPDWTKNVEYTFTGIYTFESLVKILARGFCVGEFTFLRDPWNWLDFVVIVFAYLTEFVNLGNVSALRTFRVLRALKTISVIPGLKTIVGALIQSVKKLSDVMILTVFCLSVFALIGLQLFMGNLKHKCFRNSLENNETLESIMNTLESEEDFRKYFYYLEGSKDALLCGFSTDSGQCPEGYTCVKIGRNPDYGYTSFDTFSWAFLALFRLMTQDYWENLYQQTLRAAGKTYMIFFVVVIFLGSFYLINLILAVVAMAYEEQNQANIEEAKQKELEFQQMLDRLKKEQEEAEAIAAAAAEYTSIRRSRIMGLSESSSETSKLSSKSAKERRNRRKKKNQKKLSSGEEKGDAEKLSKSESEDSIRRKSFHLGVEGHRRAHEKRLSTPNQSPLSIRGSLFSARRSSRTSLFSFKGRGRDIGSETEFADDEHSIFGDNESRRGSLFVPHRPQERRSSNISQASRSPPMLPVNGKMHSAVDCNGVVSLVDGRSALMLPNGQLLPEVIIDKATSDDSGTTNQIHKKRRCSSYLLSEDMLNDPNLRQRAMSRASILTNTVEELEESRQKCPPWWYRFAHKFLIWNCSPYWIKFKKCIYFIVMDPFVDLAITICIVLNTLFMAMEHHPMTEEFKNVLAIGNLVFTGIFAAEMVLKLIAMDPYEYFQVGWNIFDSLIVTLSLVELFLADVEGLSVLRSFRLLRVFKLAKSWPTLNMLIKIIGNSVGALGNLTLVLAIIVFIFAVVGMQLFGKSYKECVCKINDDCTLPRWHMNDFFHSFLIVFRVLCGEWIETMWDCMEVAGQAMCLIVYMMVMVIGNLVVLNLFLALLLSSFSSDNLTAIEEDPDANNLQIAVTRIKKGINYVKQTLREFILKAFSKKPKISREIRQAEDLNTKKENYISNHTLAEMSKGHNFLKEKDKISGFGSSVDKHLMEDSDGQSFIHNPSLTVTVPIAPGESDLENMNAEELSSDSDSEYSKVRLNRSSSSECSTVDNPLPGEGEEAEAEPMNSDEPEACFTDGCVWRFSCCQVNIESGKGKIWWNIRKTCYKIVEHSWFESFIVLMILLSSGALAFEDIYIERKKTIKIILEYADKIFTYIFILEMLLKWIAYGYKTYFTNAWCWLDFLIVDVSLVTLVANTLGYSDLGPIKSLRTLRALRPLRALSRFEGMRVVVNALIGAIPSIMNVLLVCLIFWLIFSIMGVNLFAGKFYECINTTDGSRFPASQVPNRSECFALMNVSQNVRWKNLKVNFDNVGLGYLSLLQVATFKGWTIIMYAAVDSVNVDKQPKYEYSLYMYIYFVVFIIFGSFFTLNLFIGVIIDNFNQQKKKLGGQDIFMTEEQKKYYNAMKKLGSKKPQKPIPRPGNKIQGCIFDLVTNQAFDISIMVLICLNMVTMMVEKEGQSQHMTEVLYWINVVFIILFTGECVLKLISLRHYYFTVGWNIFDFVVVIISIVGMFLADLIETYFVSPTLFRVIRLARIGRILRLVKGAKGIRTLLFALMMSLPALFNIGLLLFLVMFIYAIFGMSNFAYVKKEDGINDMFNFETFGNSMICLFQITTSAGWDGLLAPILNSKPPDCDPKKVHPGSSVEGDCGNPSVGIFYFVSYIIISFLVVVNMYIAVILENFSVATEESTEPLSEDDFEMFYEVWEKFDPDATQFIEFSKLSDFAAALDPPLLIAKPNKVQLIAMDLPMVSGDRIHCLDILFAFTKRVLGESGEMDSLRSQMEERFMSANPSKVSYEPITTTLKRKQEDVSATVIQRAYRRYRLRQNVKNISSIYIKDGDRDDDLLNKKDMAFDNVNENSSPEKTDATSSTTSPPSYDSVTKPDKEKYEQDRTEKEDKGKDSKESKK
row,SMILES,IC50
1,COc1cc(-c2ccc(Cl)c(C)c2)c(F)cc1-n1c(=O)cnc2cc(S(=O)(=O)Nc3ncccn3)ccc21,23 nM and 6 nM
2,COc1cc(CC2CCCCC2)c(F)cc1-n1c(=O)ccc2cc(S(=O)(=O)Nc3ncon3)ccc21,30 nM
3,COc1cc(-c2ccc(-n3c(=O)ccc4cc(S(=O)(=O)Nc5ncccn5)ccc43)c(OC)c2)ccc1C,243 nM
4,COc1cc(-c2cc(Cl)ccc2C)ccc1-n1c(=O)ccc2cc(S(=O)(=O)Nc3ncccn3)ccc21,12 nM
5,COc1cc(OC)cc(-c2cc(OC)c(-n3c(=O)ccc4cc(S(=O)(=O)Nc5ncc(F)cn5)ccc43)cc2F)c1,33 nM
6,COc1cc(-c2ccc(Cl)c(C)c2)ccc1-n1c(=O)ccc2cc(S(=O)(=O)Nc3ncon3)ccc21,30 nM
7,COc1cc(OC)cc(-c2cc(OC)c(-n3c(=O)ccc4cc(S(=O)(=O)Nc5ccon5)ccc43)cc2F)c1,12 nM
8,COc1cc(-c2cc(Cl)cnc2OC)c(F)cc1-n1c(=O)ccc2cc(S(=O)(=O)Nc3ncccn3)ccc21,72 nM
9,COc1cc(C2CCOCC2)c(F)cc1-n1c(=O)ccc2cc(S(=O)(=O)Nc3ccon3)ccc21,3070 nM
10,COc1cc(-c2cc(F)cc(Cl)c2)c(F)cc1-n1c(=O)ccc2cc(S(=O)(=O)Nc3ncco3)ccc21,14 nM
11,COc1cc(C(F)(F)F)c(Cl)cc1-n1c(=O)ccc2cc(S(=O)(=O)Nc3ccncn3)ccc21,123 nM
12,COc1cc(-c2ccc(-n3c(=O)ccc4cc(S(=O)(=O)Nc5ncc(F)cn5)ccc43)c(OC)c2)ccc1C,166 nM
13,COc1cc(-c2ccccn2)c(F)cc1-n1c(=O)ccc2cc(S(=O)(=O)Nc3ccon3)ccc21,888 nM
14,COc1cc(-c2cc(Cl)cnc2OC)c(F)cc1-n1c(=O)ccc2cc(S(=O)(=O)Nc3ccon3)ccc21,24 nM
15,COc1ccc(-c2cc(OC)c(-n3c(=O)ccc4cc(S(=O)(=O)Nc5ccon5)ccc43)cc2F)cc1Cl,25 nM
16,COc1cc(NS(=O)(=O)c2ccc3c(ccc(=O)n3-c3cc(F)c(-c4cc(F)cc(Cl)c4)cc3OC)c2)ncn1,49 nM
17,COc1cc(-c2ccc(F)cc2)c(F)cc1-n1c(=O)ccc2cc(S(=O)(=O)Nc3ncccn3)ccc21,193 nM
18,COc1cc(-c2cccc(C(F)F)c2)c(F)cc1-n1c(=O)ccc2cc(S(=O)(=O)Nc3ccon3)ccc21,35 nM

row,SMILES,IC50
1,COc1cc(-c2ccc(-n3c(=O)ccc4cc(S(=O)(=O)Nc5cccnn5)ccc43)c(OC)c2)ccc1C,143 nM
2,COc1cc(OC)cc(-c2cc(OC)c(-n3c(=O)ccc4cc(S(=O)(=O)Nc5ncccn5)ccc43)cc2F)c1,64 nM
3,COc1cc(-c2ccc(F)c(F)c2)c(F)cc1-n1c(=O)ccc2cc(S(=O)(=O)Nc3cccnn3)ccc21,16 nM
4,COc1cc(-c2cccc(OC(F)F)c2)c(F)cc1-n1c(=O)ccc2cc(S(=O)(=O)Nc3ncccn3)ccc21,23 nM
5,COc1cc(-c2cccc(C(F)(F)F)c2)c(F)cc1-n1c(=O)ccc2cc(S(=O)(=O)Nc3ncccn3)ccc21,10 nM
6,COc1cc(-c2cc(F)cc(OC(F)F)c2)c(F)cc1-n1c(=O)ccc2cc(S(=O)(=O)Nc3ccon3)ccc21,11 nM
7,COc1cc(-c2ccc(-n3c(=O)ccc4cc(S(=O)(=O)Nc5cc(C)ncn5)ccc43)c(OC)c2)ccc1C,198 nM
8,COc1cc(-c2cc(F)cc(C(F)(F)F)c2)ccc1-n1c(=O)ccc2cc(S(=O)(=O)Nc3ncco3)ccc21,37 nM
9,COc1cc(-c2cc(C)cc(F)c2)c(F)cc1-n1c(=O)ccc2cc(S(=O)(=O)Nc3ccon3)ccc21,8 nM
10,COc1cc(-c2cccc(C(F)(F)F)c2)c(F)cc1-n1c(=O)ccc2cc(S(=O)(=O)Nc3cc(C)ncn3)ccc21,10 nM
11,COc1cc(-c2ccc(C#N)c(C)c2)c(F)cc1-n1c(=O)ccc2cc(S(=O)(=O)Nc3ccon3)ccc21,91 nM
12,COc1cc(-c2ccc(F)c(F)c2)ccc1-n1c(=O)ccc2cc(S(=O)(=O)Nc3ncc(F)cn3)ccc21,76 nM
13,COc1cc(-c2cc(F)cc(C(F)(F)F)c2)ccc1-n1c(=O)ccc2cc(S(=O)(=O)Nc3ncc(F)cn3)ccc21,35 nM
14,COc1cc(-c2ccc(F)c(OC(F)F)c2)c(F)cc1-n1c(=O)ccc2cc(S(=O)(=O)Nc3ccon3)ccc21,22 nM
15,COc1cc(-c2ccc(Cl)cc2)ccc1-n1c(=O)ccc2cc(S(=O)(=O)Nc3ccon3)ccc21,22 nM
16,COc1cc(C#CC(C)(C)OC)c(F)cc1-n1c(=O)ccc2cc(S(=O)(=O)Nc3ccon3)ccc21,373 nM
17,COc1cc(OC)cc(-c2cc(OC)c(-n3c(=O)ccc4cc(S(=O)(=O)Nc5cccnn5)ccc43)cc2F)c1,83 nM
18,COc1cc(Cl)cc(-c2cc(OC)c(-n3c(=O)ccc4cc(S(=O)(=O)Nc5ncccn5)ccc43)cc2C)c1,5 nM

# Second part, the compound after the results:
row,IC50,SMILES
1,49 nM,COc1cc(Oc2ccc(F)cc2)ccc1-n1c(=O)ccc2cc(S(=O)(=O)Nc3ccon3)ccc21
2,93 nM,COc1cc(-c2cc(Cl)ccn2)c(F)cc1-n1c(=O)ccc2cc(S(=O)(=O)Nc3ccon3)ccc21
3,9 nM,COc1cc(-c2ccc(F)cc2)c(F)cc1-n1c(=O)ccc2cc(S(=O)(=O)Nc3ccon3)ccc21
4,296 nM,COc1cc(-c2ccc(-n3c(=O)ccc4cc(S(=O)(=O)Nc5ccnc(C)n5)ccc43)c(OC)c2)ccc1C
5,52 nM,COc1nc(OCC2CCCCC2)c(Cl)cc1-n1c(=O)ccc2cc(S(=O)(=O)Nc3ccon3)ccc21
6,9 nM,COc1cc(-c2cc(F)cc(C(F)(F)F)c2)ccc1-n1c(=O)ccc2cc(S(=O)(=O)Nc3ccon3)ccc21
7,4530 nM,COCc1cc(NS(=O)(=O)c2ccc3c(ccc(=O)n3-c3cc(F)c(Br)cc3OC)c2)ncn1
8,8 nM,COc1cc(C#CC2CCCC2)c(F)cc1-n1c(=O)ccc2cc(S(=O)(=O)Nc3cccnn3)ccc21
9,88 nM,COc1cc(C2CCCC2)c(F)cc1-n1c(=O)ccc2cc(S(=O)(=O)Nc3ccon3)ccc21
10,28 nM,COc1cc(-c2cccc(OC(F)F)c2)c(F)cc1-n1c(=O)ccc2cc(S(=O)(=O)Nc3ccnc(C)n3)ccc21
11,1560 nM,COc1cc(Br)c(F)cc1-n1c(=O)ccc2cc(S(=O)(=O)Nc3nccc(C)n3)ccc21
12,52 nM,COc1cc(Cl)cc(-c2ccc(-n3c(=O)cnc4cc(S(=O)(=O)Nc5ccon5)ccc43)c(OC)c2)c1
13,124 nM,CCc1nccc(NS(=O)(=O)c2ccc3c(ccc(=O)n3-c3cc(F)c(Br)cc3OC)c2)n1
14,3010 nM,COc1cc(Br)c(F)cc1-n1c(=O)ccc2cc(S(=O)(=O)Nc3ccnc(C)n3)ccc21
15,39 nM,COc1cc(CC2CCCCC2)c(F)cc1-n1c(=O)ccc2cc(S(=O)(=O)Nc3ncccn3)ccc21
16,312 nM,COc1cc(NS(=O)(=O)c2ccc3c(ccc(=O)n3-c3cc(F)c(Br)cc3OC)c2)ncn1
17,22 nM,COc1cc(C#CC2CCCC2)c(F)cc1-n1c(=O)ccc2cc(S(=O)(=O)Nc3ccon3)ccc21

row,IC50,SMILES
1,5 nM,COc1cc(-c2ccc(Cl)c(C)c2)c(F)cc1-n1c(=O)ccc2cc(S(=O)(=O)Nc3ccncn3)ccc21
2,9 nM,COc1cc(-c2ccc(Cl)c(C)c2)ccc1-n1c(=O)ccc2cc(S(=O)(=O)Nc3ncco3)ccc21
3,1980 nM,COc1ccc(CC(=O)OC(C)(C)C)cc1-n1c(=O)ccc2cc(S(=O)(=O)Nc3ccon3)ccc21
4,10 nM,COc1cc(Cl)cc(-c2ccc(-n3c(=O)ccc4cc(S(=O)(=O)Nc5ccon5)ccc43)c(OC)c2)c1
5,13 nM,COc1cc(-c2ccc(Cl)c(C)c2)c(F)cc1-n1c(=O)ccc2cc(S(=O)(=O)Nc3ccon3)c(F)cc21
6,7920 nM,CCc1nccc(NS(=O)(=O)c2ccc3c(ccc(=O)n3-c3cc(F)c(-c4cc(F)cc(Cl)c4)cc3OC)c2)n1
7,1550 nM,COc1cc(C#CC2(C)COC2)c(F)cc1-n1c(=O)ccc2cc(S(=O)(=O)Nc3ccon3)ccc21
8,16 nM,COc1cc(Cl)ccc1-c1cc(OC)c(-n2c(=O)ccc3cc(S(=O)(=O)Nc4ccon4)ccc32)cc1F
9,481 nM,COc1cc(C2CC2)c(Cl)cc1-n1c(=O)ccc2cc(S(=O)(=O)Nc3ccon3)ccc21
10,11 nM,COc1cc(CC2CCCC2)c(F)cc1-n1c(=O)ccc2cc(S(=O)(=O)Nc3ccon3)ccc21
11,1040 nM,COc1cc(Br)c(F)cc1-n1c(=O)ccc2cc(S(=O)(=O)Nc3cc(C)ncn3)ccc21
12,10 nM,COc1cc(-c2cc(OC)c(-n3c(=O)ccc4cc(S(=O)(=O)Nc5cccnn5)ccc43)cc2F)ccc1Cl
13,902 nM,COc1ccc(-c2ccc(F)nc2)cc1-n1c(=O)ccc2cc(S(=O)(=O)Nc3ccon3)ccc21
14,684 nM,Cc1cc(-c2cc(C)c(-n3c(=O)ccc4cc(S(=O)(=O)Nc5ccncn5)ccc43)cc2F)ccc1Cl
15,21 nM,COc1cc(-c2ccc(-n3c(=O)ccc4cc(S(=O)(=O)Nc5ncccn5)ccc43)c(OC)c2)ccc1Cl
16,95 nM,COc1cc(-c2ccc(Cl)cc2)ccc1-n1c(=O)ccc2cc(S(=O)(=O)Nc3ncccn3)ccc21
